Measurements: ChEMBL document CHEMBL5715949, “Discovery of a selective irreversible BMX inhibitor for prostate cancer” (ACS Chem Biol, 2013)
Activity calls are given as the source filed them. The rule behind the calls is not given here.

Columns and labels:
[1] = Inhibition of PI3K/AKT/mTOR signalling pathway in human RV-1 cells assessed as decrease in 4EBP phosphorylation at T37/46 residue at 2.5 uM incubated for 5 days in presence of MK2206 by immunoblot analysis; assay type: cell-based; settings: time 5.0 day
[2] = Down regulation of BMX protein expression in human RV-1 cells expressing BMX C496S mutant assessed protein expression level at 2.5 uM pre incubated for 4 hrs followed by compound wash out and additon of CHX and measured after 24 hrs by immunoblot analysis (reference value: 1.01 to 1.13); assay type: functional
[3] = biological target: Activin receptor type-1B (Homo sapiens) (UniProt P36896); assay: Inhibition of ACVR1B (unknown origin) assessed as remaining activity at 1 uM by Kinome scan method relative to control
RV-1 [4] = assay: Induction of apoptosis in human RV-1 cells at 2.5 uM incubated for 5 days in presence of […] by propidium iodide staining based flow cytometric analysis; assay type: functional, cell-based; settings: time 5.0 day
[5] = biological target: Proto-oncogene tyrosine-protein kinase ROS (Homo sapiens) (UniProt P08922); assay: Inhibition of ROS1 (unknown origin) assessed as remaining activity at 1 uM by Kinome scan method relative to control
[6] = biological target: Serine/threonine-protein kinase DCLK3 (Homo sapiens) (UniProt Q9C098); assay: Inhibition of DCAMKL3 (unknown origin) assessed as remaining activity at 1 uM by Kinome scan method relative to control
RV-1 [7] = assay: Antiproliferative activity against human RV-1 cells assessed as reduction in cell viability at 500 to 2500 nM incubated for 5 days in presence of erlotinib by CellTiter-Glo assay; assay type: functional, cell-based; settings: dose 500-2500 nM, time 5.0 day
[8] = Induction of cell cycle arrest in human RV-1 cells assessed as accumulation of cells at S phase at 2.5 uM incubated for 5 days in presence of MK2206 by propidium iodide staining based flow cytometric analysis (reference value: 28.9 %); assay type: functional; settings: time 5 day
BaF3 = assay: Antiproliferative activity against mouse BaF3 cells expressing TEL-fused BMX Cys496Ser assessed growth inhibition incubated for 2 to 5 days by CellTiter-Glo assay; assay type: functional, cell-based
[9] = biological target: Calcium/calmodulin-dependent protein kinase type II subunit alpha (Homo sapiens) (UniProt Q9UQM7); assay: Inhibition of CAMK2A (unknown origin) assessed as remaining activity at 1 uM by Kinome scan method relative to control
[10] = biological target: Serine/threonine-protein kinase PAK 1 (Homo sapiens) (UniProt Q13153); assay: Inhibition of PAK1 (unknown origin) assessed as remaining activity at 1 uM by Kinome scan method relative to control
[11] = biological target: Phosphorylase b kinase gamma catalytic chain, skeletal muscle/heart isoform (Homo sapiens) (UniProt Q16816); assay: Inhibition of PHKG1 (unknown origin) assessed as remaining activity at 1 uM by Kinome scan method relative to control
RV-1 [12] = assay: Antiproliferative activity against human RV-1 cells assessed as reduction in cell viability at 500 to 2500 nM incubated for 5 days in presence of Torin2 by CellTiter-Glo assay; assay type: functional, cell-based; settings: dose 500-2500 nM, time 5.0 day
[13] = biological target: Fibroblast growth factor receptor 2 (Homo sapiens) (UniProt P21802); assay: Inhibition of FGFR2 (unknown origin) assessed as remaining activity at 1 uM by Kinome scan method relative to control
[14] = Inhibition of PI3K/AKT/mTOR signalling pathway in human RV-1 cells assessed as decrease in AKT phosphorylation at T308 residue at 2.5 uM incubated for 4 hrs by immunoblot analysis; assay type: cell-based
[15] = biological target: Serine/threonine-protein kinase BRSK2 (Homo sapiens) (UniProt Q8IWQ3); assay: Inhibition of BRSK2 (unknown origin) assessed as remaining activity at 1 uM by Kinome scan method relative to control
RV-1 [16] = assay: Antiproliferative activity against human RV-1 cells assessed as reduction in cell viability at 500 to 2500 nM incubated for 5 days in presence of AZD8055 by CellTiter-Glo assay; assay type: functional, cell-based; settings: dose 500-2500 nM, time 5.0 day
[17] = biological target: BDNF/NT-3 growth factors receptor (Homo sapiens) (UniProt Q16620); assay: Inhibition of TRKB (unknown origin) assessed as remaining activity at 1 uM by Kinome scan method relative to control
LNCaP C4-2 = assay: Antiproliferative activity against human C4-2 cells assessed growth inhibition incubated for 2 to 5 days by CellTiter-Glo assay; assay type: functional; settings: time 2-5 day
[18] = biological target: Serine/threonine-protein kinase MARK1 (Homo sapiens) (UniProt Q9P0L2); assay: Inhibition of MARK1 (unknown origin) assessed as remaining activity at 1 uM by Kinome scan method relative to control
[19] = tested on: Phosphatidylinositol 4,5-bisphosphate 3-kinase catalytic subunit alpha isoform (Homo sapiens), P42336 [H1047Y]; assay: Inhibition of PIK3CA H1047Y mutant (unknown origin) assessed as remaining activity at 1 uM by Kinome scan method relative to control
[20] = biological target: Serine/threonine-protein kinase PAK 2 (Homo sapiens) (UniProt Q13177); assay: Inhibition of PAK2 (unknown origin) assessed as remaining activity at 1 uM by Kinome scan method relative to control
[21] = biological target: Serine/threonine-protein kinase Nek2 (Homo sapiens) (UniProt P51955); assay: Inhibition of NEK2 (unknown origin) assessed as remaining activity at 1 uM by Kinome scan method relative to control
[22] = biological target: Serine/threonine-protein kinase TAO2 (Homo sapiens) (UniProt Q9UL54); assay: Inhibition of TAOK2 (unknown origin) assessed as remaining activity at 1 uM by Kinome scan method relative to control
[23] = biological target: Protein kinase C delta type (Homo sapiens) (UniProt Q05655); assay: Inhibition of PRKCD (unknown origin) assessed as remaining activity at 1 uM by Kinome scan method relative to control
[24] = biological target: Mitogen-activated protein kinase kinase kinase 12 (Homo sapiens) (UniProt Q12852); assay: Inhibition of DLK (unknown origin) assessed as remaining activity at 1 uM by Kinome scan method relative to control
[25] = biological target: Ribosomal protein S6 kinase alpha-4 (Homo sapiens) (UniProt O75676); assay: Inhibition of N-terminal kinase domain RPS6KA4 (unknown origin) assessed as remaining activity at 1 uM by Kinome scan method relative to control
[26] = biological target: Death-associated protein kinase 1 (Homo sapiens) (UniProt P53355); assay: Inhibition of DAPK1 (unknown origin) assessed as remaining activity at 1 uM by Kinome scan method relative to control
[27] = tested on: Receptor-type tyrosine-protein kinase FLT3 (Homo sapiens), P36888 [N841I]; assay: Inhibition of FLT3 N841I mutant (unknown origin) assessed as remaining activity at 1 uM by Kinome scan method relative to control
[28] = biological target: Hormonally up-regulated neu tumor-associated kinase (Homo sapiens) (UniProt P57058); assay: Inhibition of HUNK (unknown origin) assessed as remaining activity at 1 uM by Kinome scan method relative to control
RV-1 [29] = assay: Antiproliferative activity against human RV-1 cells assessed as reduction in cell viability at 500 to 2500 nM incubated for 5 days in presence of gefitinib by CellTiter-Glo assay; assay type: functional, cell-based; settings: dose 500-2500 nM, time 5.0 day

Activin receptor type-1B (Homo sapiens), sequence (P36896 whole entry): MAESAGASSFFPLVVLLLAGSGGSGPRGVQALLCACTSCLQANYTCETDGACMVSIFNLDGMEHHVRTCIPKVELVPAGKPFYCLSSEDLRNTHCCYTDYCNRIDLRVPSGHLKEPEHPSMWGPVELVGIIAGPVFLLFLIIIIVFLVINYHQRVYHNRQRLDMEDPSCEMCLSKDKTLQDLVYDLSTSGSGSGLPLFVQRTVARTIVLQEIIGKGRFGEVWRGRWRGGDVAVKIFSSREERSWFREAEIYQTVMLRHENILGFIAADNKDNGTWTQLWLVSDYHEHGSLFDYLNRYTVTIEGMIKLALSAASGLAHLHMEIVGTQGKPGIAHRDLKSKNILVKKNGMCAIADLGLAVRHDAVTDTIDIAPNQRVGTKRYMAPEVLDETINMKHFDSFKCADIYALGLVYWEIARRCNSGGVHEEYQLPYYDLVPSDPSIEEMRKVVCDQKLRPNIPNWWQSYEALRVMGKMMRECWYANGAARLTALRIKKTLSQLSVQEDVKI
Mitogen-activated protein kinase kinase kinase 12 (Homo sapiens), sequence (Q12852 whole entry, the tested form may be a part): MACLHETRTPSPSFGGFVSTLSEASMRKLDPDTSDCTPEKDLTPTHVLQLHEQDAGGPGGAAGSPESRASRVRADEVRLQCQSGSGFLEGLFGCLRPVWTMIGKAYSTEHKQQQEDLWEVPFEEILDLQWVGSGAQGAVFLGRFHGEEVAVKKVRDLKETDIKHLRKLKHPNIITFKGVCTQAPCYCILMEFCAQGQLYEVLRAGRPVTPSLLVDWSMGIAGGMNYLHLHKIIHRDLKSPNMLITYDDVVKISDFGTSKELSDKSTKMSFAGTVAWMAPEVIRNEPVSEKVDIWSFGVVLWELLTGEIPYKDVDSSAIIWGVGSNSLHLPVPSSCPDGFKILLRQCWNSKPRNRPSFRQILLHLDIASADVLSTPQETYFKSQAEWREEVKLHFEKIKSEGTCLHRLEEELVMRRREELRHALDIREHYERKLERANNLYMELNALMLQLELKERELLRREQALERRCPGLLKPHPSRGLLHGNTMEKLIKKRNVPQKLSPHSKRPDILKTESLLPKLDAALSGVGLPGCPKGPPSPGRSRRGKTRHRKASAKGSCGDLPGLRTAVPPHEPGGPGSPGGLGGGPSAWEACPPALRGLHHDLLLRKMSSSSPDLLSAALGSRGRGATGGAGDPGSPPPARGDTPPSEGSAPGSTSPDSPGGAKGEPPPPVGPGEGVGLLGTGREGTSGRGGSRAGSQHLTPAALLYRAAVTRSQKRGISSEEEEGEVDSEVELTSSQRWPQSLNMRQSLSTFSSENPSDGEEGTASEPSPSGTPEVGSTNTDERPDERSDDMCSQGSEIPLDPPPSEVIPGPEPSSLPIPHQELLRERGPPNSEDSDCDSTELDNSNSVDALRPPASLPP
Serine/threonine-protein kinase TAO2 (Homo sapiens), sequence (Q9UL54 whole entry): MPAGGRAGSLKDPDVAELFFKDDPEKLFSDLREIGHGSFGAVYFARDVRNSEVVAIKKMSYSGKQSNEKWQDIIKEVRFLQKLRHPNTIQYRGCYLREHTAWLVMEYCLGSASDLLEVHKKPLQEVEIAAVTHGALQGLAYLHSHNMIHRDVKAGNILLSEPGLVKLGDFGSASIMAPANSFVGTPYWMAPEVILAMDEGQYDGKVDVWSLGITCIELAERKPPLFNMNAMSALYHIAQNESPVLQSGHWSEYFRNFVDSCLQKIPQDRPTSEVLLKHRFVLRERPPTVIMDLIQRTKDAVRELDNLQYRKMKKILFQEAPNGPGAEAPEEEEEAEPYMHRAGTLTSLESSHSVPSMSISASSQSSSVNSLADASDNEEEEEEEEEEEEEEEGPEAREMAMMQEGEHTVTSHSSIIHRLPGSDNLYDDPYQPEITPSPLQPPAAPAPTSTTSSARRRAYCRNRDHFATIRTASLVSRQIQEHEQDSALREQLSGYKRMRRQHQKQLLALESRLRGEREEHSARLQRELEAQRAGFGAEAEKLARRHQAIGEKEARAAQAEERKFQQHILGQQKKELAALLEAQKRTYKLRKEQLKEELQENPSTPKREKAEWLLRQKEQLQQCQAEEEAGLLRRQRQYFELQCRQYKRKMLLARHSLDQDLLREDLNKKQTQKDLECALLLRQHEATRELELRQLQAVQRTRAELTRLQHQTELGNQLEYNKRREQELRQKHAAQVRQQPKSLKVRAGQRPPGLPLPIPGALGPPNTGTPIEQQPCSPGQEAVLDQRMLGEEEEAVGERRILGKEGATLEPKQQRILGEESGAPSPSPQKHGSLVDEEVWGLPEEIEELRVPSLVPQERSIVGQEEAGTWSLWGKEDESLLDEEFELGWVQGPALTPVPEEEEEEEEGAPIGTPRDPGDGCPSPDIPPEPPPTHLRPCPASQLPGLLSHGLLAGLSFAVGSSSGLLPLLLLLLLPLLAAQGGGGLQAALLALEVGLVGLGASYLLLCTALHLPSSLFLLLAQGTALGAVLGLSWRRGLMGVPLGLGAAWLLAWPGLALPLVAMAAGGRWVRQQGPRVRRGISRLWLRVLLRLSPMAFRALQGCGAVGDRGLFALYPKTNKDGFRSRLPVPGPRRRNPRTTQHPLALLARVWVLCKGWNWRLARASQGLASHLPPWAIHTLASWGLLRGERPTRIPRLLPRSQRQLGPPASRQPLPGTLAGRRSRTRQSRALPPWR
Phosphorylase b kinase gamma catalytic chain, skeletal muscle/heart isoform (Homo sapiens), sequence (Q16816 whole entry, looked up, canonical isoform): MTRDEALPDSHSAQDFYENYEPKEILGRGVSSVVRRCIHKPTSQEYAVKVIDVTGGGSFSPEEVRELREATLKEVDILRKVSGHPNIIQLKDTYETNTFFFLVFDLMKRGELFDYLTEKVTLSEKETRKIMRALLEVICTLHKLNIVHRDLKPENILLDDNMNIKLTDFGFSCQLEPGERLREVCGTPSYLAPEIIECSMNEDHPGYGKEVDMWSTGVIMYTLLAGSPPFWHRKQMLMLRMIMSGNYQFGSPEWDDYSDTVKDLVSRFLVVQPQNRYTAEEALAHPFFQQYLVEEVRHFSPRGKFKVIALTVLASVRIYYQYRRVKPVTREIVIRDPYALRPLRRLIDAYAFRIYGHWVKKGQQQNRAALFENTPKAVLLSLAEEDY
Hormonally up-regulated neu tumor-associated kinase (Homo sapiens), sequence (P57058 whole entry): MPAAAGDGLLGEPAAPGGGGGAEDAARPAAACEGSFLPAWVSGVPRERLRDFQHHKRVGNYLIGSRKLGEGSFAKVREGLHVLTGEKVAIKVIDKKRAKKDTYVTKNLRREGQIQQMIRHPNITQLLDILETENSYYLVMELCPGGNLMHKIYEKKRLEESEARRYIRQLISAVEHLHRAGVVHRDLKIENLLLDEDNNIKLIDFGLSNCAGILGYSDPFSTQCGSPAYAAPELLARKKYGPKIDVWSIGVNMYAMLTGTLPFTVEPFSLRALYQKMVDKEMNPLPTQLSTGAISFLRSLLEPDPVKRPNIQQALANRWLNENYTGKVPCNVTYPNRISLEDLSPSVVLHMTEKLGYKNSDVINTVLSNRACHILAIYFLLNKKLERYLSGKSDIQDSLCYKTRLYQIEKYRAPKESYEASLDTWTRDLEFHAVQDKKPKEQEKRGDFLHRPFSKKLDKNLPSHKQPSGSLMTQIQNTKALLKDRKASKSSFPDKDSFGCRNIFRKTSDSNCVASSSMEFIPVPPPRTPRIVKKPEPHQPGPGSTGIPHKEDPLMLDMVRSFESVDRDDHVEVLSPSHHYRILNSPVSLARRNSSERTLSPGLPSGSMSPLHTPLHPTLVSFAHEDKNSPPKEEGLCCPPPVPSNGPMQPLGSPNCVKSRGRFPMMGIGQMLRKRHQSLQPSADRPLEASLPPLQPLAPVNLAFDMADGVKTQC
Protein kinase C delta type (Homo sapiens), sequence (Q05655 whole entry, looked up): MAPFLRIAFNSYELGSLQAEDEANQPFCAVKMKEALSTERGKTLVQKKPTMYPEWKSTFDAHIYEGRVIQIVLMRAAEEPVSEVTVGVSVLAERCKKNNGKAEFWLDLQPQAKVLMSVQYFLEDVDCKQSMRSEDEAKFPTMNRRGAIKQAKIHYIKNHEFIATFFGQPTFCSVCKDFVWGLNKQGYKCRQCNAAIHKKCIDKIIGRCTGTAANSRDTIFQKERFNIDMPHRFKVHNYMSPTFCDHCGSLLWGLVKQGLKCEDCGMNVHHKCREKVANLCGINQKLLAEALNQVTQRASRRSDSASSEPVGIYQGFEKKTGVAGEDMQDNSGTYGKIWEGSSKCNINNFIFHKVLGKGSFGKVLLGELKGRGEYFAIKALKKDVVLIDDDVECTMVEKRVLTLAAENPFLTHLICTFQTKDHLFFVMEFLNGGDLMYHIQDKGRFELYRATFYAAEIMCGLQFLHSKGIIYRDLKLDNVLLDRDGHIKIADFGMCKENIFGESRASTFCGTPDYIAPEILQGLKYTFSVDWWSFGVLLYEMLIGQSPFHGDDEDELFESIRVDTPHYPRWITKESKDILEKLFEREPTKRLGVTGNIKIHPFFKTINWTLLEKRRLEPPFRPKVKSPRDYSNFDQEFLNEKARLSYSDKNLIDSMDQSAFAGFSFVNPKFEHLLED
Serine/threonine-protein kinase DCLK3 (Homo sapiens), sequence (Q9C098 whole entry): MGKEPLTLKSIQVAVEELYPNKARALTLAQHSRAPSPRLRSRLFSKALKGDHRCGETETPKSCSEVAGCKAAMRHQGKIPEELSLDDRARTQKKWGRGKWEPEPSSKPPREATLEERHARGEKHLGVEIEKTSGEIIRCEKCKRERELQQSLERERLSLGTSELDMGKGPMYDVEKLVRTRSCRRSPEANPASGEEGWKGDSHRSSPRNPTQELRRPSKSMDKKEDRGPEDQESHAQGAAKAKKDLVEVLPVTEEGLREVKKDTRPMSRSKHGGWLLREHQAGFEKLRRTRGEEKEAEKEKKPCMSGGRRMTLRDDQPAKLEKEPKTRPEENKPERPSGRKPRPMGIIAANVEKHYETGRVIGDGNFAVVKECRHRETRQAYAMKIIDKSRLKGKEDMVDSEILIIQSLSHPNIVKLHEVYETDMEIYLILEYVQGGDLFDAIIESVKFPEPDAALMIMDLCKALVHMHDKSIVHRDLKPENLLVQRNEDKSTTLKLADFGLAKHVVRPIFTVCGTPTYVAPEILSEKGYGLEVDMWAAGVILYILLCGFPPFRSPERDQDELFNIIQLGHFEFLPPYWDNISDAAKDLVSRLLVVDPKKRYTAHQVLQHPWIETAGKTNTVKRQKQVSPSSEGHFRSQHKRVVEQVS

C=CC(=O)Nc1cc(-n2c(=O)ccc3cnc4ccc(-c5ccc(NS(C)(=O)=O)cc5)cc4c32)ccc1C
inhibition [1]: Active
Activity [2]: 0.83
Activity [3]: 84%
Activity (RV-1 [4]): Active
Activity [5]: 81%
Activity [6]: 94%
Activity (RV-1 [7]): Active
Activity [8]: 24.3%
IC50 (BaF3): > 10 µM
Activity [9]: 98%
Activity [10]: 86%
Activity [11]: 86%
Activity (RV-1 [12]): Active
Activity [13]: 96%
inhibition [14]: inactive
Activity [15]: 84%
Activity (RV-1 [16]): Active
Activity [17]: 62%
GI50 (LNCaP C4-2): > 10 µM
Activity [18]: 97%
Activity [19]: 88%
Activity [20]: 78%
Activity [21]: 79%
Activity [22]: 80%
Activity [23]: 41%
Activity [24]: 70%
Activity [25]: 67%
Activity [26]: 96%
Activity [27]: 85%
Activity [28]: 85%
Activity (RV-1 [29]): Active
